Experimental data as given in ChEMBL document CHEMBL1909046, “DrugMatrix in vitro pharmacology data”.

Key:
[1] = biological target: T1, Type-2 angiotensin II receptor (Homo sapiens, UniProt P50052); assay type: cell-based; conditions: cho-k1; further: in other assays of this panel Not Active means under 50% inhibition at 10 µM
T1 sequence (P50052 whole entry): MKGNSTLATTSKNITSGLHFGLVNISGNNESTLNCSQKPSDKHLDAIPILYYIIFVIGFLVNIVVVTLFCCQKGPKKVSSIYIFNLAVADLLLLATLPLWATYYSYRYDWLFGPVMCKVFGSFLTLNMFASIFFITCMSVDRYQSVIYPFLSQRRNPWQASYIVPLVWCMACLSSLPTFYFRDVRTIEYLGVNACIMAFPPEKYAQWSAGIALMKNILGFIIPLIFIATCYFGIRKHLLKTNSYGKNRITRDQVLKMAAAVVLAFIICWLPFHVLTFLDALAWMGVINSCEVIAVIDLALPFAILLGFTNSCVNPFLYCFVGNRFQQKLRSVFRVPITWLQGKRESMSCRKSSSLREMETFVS

[2] = DRUGMATRIX: Interleukin IL-1 radioligand binding (ligand: [125I] interleukin 1beta); assay type: cell membranes, Membrane; conditions: nih3t3; Not Active = under 50% inhibition at 10 µM
Melanocortin receptor 3 = Melanocortin receptor 3 (Homo sapiens, UniProt P41968); assay type: cell membranes, HEK293, Membrane; conditions: hek293; further: in other assays of this panel Not Active means under 50% inhibition at 10 µM
Nitric oxide synthase 1 = Nitric oxide synthase 1 (Rattus norvegicus, UniProt P29476); assay type: tissue-based, Cerebellum; further: in other assays of this panel Not Active means under 50% inhibition at 10 µM
[3] = biological target: Kappa-type opioid receptor (Homo sapiens, UniProt P41145); test: DRUGMATRIX: Opiate kappa (OP2, KOP) radioligand binding (ligand: [3H] Diprenorphine); assay type: cell membranes, HEK293, Membrane; conditions: hek293; Not Active = under 50% inhibition at 10 µM
[4] = biological target: Protein kinase C alpha type (Homo sapiens, UniProt P17252); assay type: cell-based; conditions: sf9;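 further: inhibition of PKCalpha kinase activity measured in an enzyme assay with histone as the phosphorylation substrate; in other assays of this panel Not Active means under 50% inhibition at 10 µM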
[5] = biological target: Tyrosine-protein kinase Lck (Homo sapiens, UniProt P06239); test: DRUGMATRIX: Protein Tyrosine Kinase, LCK enzyme inhibition (substrate: Poly(Glu:Tyr)); assay type: cell-based, Insect cells; conditions: insect cells; Not Active = under 50% inhibition at 10 µM
Cytochrome P450 1A2 = biological target: T2, Cytochrome P450 1A2 (Homo sapiens, UniProt P05177); conditions: bti-tn-5b1-4; further: in other assays of this panel Not Active means under 50% inhibition at 10 µM
T2 sequence (P05177 whole entry): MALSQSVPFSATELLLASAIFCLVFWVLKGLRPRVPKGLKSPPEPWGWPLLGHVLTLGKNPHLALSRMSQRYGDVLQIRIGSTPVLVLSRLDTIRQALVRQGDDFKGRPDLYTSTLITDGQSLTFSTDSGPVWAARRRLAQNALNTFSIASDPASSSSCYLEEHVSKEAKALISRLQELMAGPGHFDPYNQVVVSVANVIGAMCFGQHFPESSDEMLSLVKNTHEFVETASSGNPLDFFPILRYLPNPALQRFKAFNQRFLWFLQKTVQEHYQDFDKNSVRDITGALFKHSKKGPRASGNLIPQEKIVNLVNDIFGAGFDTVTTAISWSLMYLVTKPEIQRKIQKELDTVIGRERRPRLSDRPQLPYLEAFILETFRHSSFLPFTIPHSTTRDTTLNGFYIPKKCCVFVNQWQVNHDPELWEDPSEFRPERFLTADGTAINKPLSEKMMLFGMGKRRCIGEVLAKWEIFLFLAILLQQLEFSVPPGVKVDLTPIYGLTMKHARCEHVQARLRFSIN

Chain of Melanocortin receptor 3 (P41968 whole entry): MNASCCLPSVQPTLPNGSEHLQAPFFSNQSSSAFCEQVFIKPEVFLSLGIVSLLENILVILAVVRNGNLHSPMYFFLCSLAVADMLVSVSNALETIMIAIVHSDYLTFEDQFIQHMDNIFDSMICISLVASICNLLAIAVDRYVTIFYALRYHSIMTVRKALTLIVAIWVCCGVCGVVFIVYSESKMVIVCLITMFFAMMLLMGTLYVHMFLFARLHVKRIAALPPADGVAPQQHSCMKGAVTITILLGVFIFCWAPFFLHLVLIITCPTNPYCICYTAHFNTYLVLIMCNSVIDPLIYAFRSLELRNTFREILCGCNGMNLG
Chain of Nitric oxide synthase 1 (P29476 whole entry): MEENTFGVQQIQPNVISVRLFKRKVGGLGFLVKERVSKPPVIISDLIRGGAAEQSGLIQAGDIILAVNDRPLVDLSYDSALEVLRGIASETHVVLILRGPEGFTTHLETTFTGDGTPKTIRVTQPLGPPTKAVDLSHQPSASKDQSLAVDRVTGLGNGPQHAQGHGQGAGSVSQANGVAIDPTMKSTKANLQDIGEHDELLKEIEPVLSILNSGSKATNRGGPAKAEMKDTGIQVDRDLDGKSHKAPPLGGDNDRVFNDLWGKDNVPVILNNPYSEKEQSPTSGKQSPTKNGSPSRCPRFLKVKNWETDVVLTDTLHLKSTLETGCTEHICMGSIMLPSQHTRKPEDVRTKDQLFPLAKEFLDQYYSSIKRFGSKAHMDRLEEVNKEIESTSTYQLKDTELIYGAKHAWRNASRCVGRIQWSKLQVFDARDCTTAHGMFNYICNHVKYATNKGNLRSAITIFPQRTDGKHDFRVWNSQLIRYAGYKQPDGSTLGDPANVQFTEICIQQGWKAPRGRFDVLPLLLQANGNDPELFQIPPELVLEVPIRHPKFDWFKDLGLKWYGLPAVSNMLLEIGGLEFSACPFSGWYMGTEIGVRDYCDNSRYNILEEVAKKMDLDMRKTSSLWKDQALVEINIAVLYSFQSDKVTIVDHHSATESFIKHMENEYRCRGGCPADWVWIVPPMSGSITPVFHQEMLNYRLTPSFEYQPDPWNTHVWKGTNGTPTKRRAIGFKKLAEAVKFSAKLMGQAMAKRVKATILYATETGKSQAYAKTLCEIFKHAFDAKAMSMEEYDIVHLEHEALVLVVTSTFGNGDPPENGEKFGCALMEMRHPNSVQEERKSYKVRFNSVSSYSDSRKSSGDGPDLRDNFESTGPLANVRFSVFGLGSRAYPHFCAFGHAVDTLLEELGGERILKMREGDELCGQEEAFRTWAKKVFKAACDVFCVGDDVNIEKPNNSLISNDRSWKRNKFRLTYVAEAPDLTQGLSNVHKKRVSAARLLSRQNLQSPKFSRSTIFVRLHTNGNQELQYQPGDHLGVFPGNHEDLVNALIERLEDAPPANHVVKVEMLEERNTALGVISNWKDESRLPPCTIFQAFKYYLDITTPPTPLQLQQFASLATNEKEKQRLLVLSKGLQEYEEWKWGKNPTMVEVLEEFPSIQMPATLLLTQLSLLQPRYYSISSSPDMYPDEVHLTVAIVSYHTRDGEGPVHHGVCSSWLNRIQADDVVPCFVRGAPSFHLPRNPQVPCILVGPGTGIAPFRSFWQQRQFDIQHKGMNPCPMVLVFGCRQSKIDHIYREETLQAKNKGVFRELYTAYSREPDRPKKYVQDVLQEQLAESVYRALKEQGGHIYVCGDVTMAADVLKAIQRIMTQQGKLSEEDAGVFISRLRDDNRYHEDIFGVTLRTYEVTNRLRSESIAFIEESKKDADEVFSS
Chain of Tyrosine-protein kinase Lck (P06239 whole entry): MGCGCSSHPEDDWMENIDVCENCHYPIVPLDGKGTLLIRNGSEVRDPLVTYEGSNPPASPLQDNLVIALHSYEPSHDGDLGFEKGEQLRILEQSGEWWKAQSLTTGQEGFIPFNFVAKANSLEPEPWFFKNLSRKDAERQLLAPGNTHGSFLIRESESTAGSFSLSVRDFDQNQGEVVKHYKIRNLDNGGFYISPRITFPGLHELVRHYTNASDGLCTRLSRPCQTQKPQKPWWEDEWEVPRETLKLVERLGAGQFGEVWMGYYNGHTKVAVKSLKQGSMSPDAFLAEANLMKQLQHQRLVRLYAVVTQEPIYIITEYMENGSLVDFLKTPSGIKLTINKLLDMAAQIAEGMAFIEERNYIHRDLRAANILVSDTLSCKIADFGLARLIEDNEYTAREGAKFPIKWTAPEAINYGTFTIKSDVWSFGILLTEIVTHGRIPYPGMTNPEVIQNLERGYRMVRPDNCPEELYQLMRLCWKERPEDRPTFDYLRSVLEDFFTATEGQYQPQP
Chain of Kappa-type opioid receptor (P41145 whole entry): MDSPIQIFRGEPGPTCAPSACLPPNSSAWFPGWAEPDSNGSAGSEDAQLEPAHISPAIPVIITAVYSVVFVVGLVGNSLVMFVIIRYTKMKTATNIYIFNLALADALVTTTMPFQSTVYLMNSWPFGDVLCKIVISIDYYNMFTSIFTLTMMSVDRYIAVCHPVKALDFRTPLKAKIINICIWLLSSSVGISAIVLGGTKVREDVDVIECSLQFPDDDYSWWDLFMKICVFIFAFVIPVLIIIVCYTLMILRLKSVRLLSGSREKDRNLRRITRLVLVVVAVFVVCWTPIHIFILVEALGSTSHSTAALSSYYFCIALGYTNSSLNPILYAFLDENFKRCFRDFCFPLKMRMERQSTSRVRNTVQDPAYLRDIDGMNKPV

COc1ccc(CCN(C)CCCC(C#N)(c2ccc(OC)c(OC)c2)C(C)C)cc1OC (centres undefined)
Not Active: IC50 [1] | IC50 [2] | Ki [2] | IC50 (Melanocortin receptor 3) | IC50 (Nitric oxide synthase 1) | IC50 [3] | IC50 [4] | IC50 [5] | IC50 (Cytochrome P450 1A2) | Ki (Cytochrome P450 1A2)

CC(C)Cc1ccc([C@@H](C)C(=O)O)cc1 [(R)-IBUPROPHEN]
Not Active: IC50 [1] | IC50 [2] | Ki [2] | IC50 (Melanocortin receptor 3) | IC50 (Nitric oxide synthase 1) | IC50 [3] | IC50 [4] | IC50 [5] | IC50 (Cytochrome P450 1A2) | Ki (Cytochrome P450 1A2)

CCN(CC)CCOc1ccc(/C(=C(/Cl)c2ccccc2)c2ccccc2)cc1 [ENCLOMIPHENE]
Not Active: IC50 [1] | IC50 (Melanocortin receptor 3) | IC50 (Nitric oxide synthase 1) | IC50 [3] | IC50 [4] | IC50 [5] | IC50 (Cytochrome P450 1A2) | Ki (Cytochrome P450 1A2)

Fc1ccc(C(c2ccc(F)cc2)N2CCN(C/C=C/c3ccccc3)CC2)cc1 [FLUNARIZINE]
Not Active: IC50 [1] | IC50 (Melanocortin receptor 3) | IC50 (Nitric oxide synthase 1) | IC50 [3] | IC50 [4] | IC50 [5] | IC50 (Cytochrome P450 1A2) | Ki (Cytochrome P450 1A2)

CNCCC(Oc1ccc(C(F)(F)F)cc1)c1ccccc1 (centres undefined) [FLUOXETINE]
Not Active: IC50 [1] | IC50 (Melanocortin receptor 3) | IC50 (Nitric oxide synthase 1) | IC50 [3] | IC50 [4] | IC50 [5] | IC50 (Cytochrome P450 1A2) | Ki (Cytochrome P450 1A2)

CC(C)Oc1ccc2c(=O)c(-c3ccccc3)coc2c1 [IPRIFLAVONE]
Not Active: IC50 [1] | IC50 [2] | Ki [2] | IC50 (Melanocortin receptor 3) | IC50 (Nitric oxide synthase 1) | IC50 [3] | IC50 [4] | IC50 [5] | IC50 (Cytochrome P450 1A2) | Ki (Cytochrome P450 1A2)

CC(C)NCC(O)c1ccc(O)c(O)c1 (centres undefined) [ISOPROTERENOL]
Not Active: IC50 [1] | IC50 [2] | Ki [2] | IC50 (Melanocortin receptor 3) | IC50 (Nitric oxide synthase 1) | IC50 [3] | IC50 [4] | IC50 [5] | IC50 (Cytochrome P450 1A2) | Ki (Cytochrome P450 1A2)

CNC1(c2ccccc2Cl)CCCCC1=O (centres undefined) [KETAMINE]
Not Active: IC50 [1] | IC50 [2] | Ki [2] | IC50 (Melanocortin receptor 3) | IC50 (Nitric oxide synthase 1) | IC50 [3] | IC50 [4] | IC50 [5] | IC50 (Cytochrome P450 1A2) | Ki (Cytochrome P450 1A2)

CCN1CCC[C@H]1CNC(=O)c1cc(S(N)(=O)=O)ccc1OC [LEVOSULPIRIDE]
Not Active: IC50 [1] | IC50 [2] | Ki [2] | IC50 (Melanocortin receptor 3) | IC50 (Nitric oxide synthase 1) | IC50 [3] | IC50 [4] | IC50 [5] | IC50 (Cytochrome P450 1A2) | Ki (Cytochrome P450 1A2)

CCN(CC)CC(=O)Nc1c(C)cccc1C [LIDOCAINE]
Not Active: IC50 [1] | IC50 [2] | Ki [2] | IC50 (Melanocortin receptor 3) | IC50 (Nitric oxide synthase 1) | IC50 [3] | IC50 [4] | IC50 [5]

O=C1Nc2ccc(Cl)cc2C(c2ccccc2Cl)=NC1O (centres undefined) [LORAZEPAM]
Not Active: IC50 [1] | IC50 [2] | Ki [2] | IC50 (Melanocortin receptor 3) | IC50 (Nitric oxide synthase 1) | IC50 [3] | IC50 [4] | IC50 [5] | IC50 (Cytochrome P450 1A2) | Ki (Cytochrome P450 1A2)

CO[C@@H]1[C@@H](OC)[C@H](C)[C@@](O)(CC(=O)O)O[C@H]1[C@H](C)[C@H]1O[C@@]2(CC[C@@](C)([C@H]3CC[C@@](C)([C@@H]4O[C@@H]([C@H]5O[C@](C)(O)[C@H](C)C[C@@H]5C)C[C@@H]4O[C@@H]4C[C@H](OC)[C@@H](OC)[C@H](C)O4)O3)O2)C[C@H](O)[C@H]1C [MADURAMICIN ACID]
Not Active: IC50 [1] | IC50 [2] | Ki [2] | IC50 (Melanocortin receptor 3) | IC50 (Nitric oxide synthase 1) | IC50 [3] | IC50 [4] | IC50 [5] | IC50 (Cytochrome P450 1A2) | Ki (Cytochrome P450 1A2)

COc1c2occc2cc2ccc(=O)oc12 [METHOXSALEN]
Not Active: IC50 [1] | IC50 [2] | Ki [2] | IC50 (Melanocortin receptor 3) | IC50 (Nitric oxide synthase 1) | IC50 [3] | IC50 [4] | IC50 [5]

C[C@H]1C[C@@H]2[C@H]([C@@H](O)C[C@@]3(C)[C@H]2CC[C@]3(O)C(=O)CO)[C@@]2(C)C=CC(=O)C=C12 [METHYLPREDNISOLONE]
Not Active: IC50 [1] | IC50 [2] | Ki [2] | IC50 (Melanocortin receptor 3) | IC50 (Nitric oxide synthase 1) | IC50 [3] | IC50 [4] | IC50 [5] | IC50 (Cytochrome P450 1A2) | Ki (Cytochrome P450 1A2)

Cc1cccc(C)c1OCC(C)N (centres undefined) [MEXILETINE]
Not Active: IC50 [1] | IC50 [2] | Ki [2] | IC50 (Melanocortin receptor 3) | IC50 (Nitric oxide synthase 1) | IC50 [3] | IC50 [4] | IC50 [5] | IC50 (Cytochrome P450 1A2) | Ki (Cytochrome P450 1A2)

CN[C@H]1CC[C@@H](c2ccc(Cl)c(Cl)c2)c2ccccc21 [SERTRALINE]
Not Active: IC50 [1] | IC50 (Melanocortin receptor 3) | IC50 (Nitric oxide synthase 1) | IC50 [3] | IC50 [4] | IC50 [5] | IC50 (Cytochrome P450 1A2) | Ki (Cytochrome P450 1A2)

NC(=O)N1C(=O)/C(=C(\O)c2cccs2)c2cc(Cl)ccc21 [TENIDAP]
Not Active: IC50 [1] | IC50 [2] | Ki [2] | IC50 (Melanocortin receptor 3) | IC50 (Nitric oxide synthase 1) | IC50 [3] | IC50 [4] | IC50 [5]

CCCCNc1ccc(C(=O)OCCN(C)C)cc1 [TETRACAINE]
Not Active: IC50 [1] | IC50 [2] | Ki [2] | IC50 (Melanocortin receptor 3) | IC50 (Nitric oxide synthase 1) | IC50 [3] | IC50 [4] | IC50 [5]
